Reference: PubChem BioAssay (NCI)
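Assay format: 96-well plates, 48-hour exposure. TGI marks complete inhibition of growth.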

Columns and labels:
Assay in all cases: growth of human tumour cells (NCI), 48 h
[1] = tested on: SK-MEL-2 melanoma
[2] = tested on: HOP-92 NSCLC
[3] = tested on: OVCAR-3 ovarian
[4] = tested on: SR leukemia
[5] = tested on: 786-0 renal
[6] = tested on: SNB-19 CNS
[7] = tested on: HCT-116 colon
[8] = tested on: SF-268 CNS
[9] = tested on: MDA-MB-231 breast
[10] = tested on: COLO 205 colon
[11] = tested on: MDA-N
[12] = tested on: SNB-75 CNS
[13] = tested on: SK-MEL-5 melanoma
[14] = tested on: NCI-H226 lung
[15] = tested on: NCI/ADR-RES ovarian
[16] = tested on: HT29 colon
[17] = tested on: MDA-MB-435
[18] = tested on: SF-539 CNS
[19] = tested on: SW-620 colon
[20] = tested on: NCI-H23 lung
[21] = tested on: HS 578T breast
[22] = tested on: T-47D breast
[23] = tested on: SN12C renal
[24] = tested on: BT-549 breast
[25] = tested on: MCF7 breast
[26] = tested on: OVCAR-8 ovarian
[27] = tested on: MALME-3M melanoma
[28] = tested on: HOP-62 NSCLC
[29] = tested on: SF-295 CNS
[30] = tested on: TK-10 renal
[31] = tested on: A498 renal
[32] = tested on: MOLT-4 leukemia
[33] = tested on: KM12 colon
[34] = tested on: UACC-62 melanoma
[35] = tested on: IGROV1 ovarian
[36] = tested on: K-562 leukemia
[37] = tested on: U251 CNS
[38] = tested on: UACC-257 melanoma
[39] = tested on: RXF 393 renal
[40] = tested on: HCT-15 colon
[41] = tested on: CAKI-1 renal
[42] = tested on: M14 melanoma
[43] = tested on: RPMI-8226 leukemia
[44] = tested on: NCI-H460 lung
[45] = tested on: A549 NSCLC
[46] = tested on: SK-MEL-28 melanoma
[47] = tested on: SK-OV-3 ovarian
[48] = tested on: LOX IMVI melanoma
[49] = tested on: CCRF-CEM leukemia
[50] = tested on: PC-3 prostate
[51] = tested on: HL-60(TB) leukemia
[52] = tested on: OVCAR-4 ovarian
[53] = tested on: UO-31 renal
[54] = tested on: DU-145 prostate
[55] = tested on: HCC-2998 colon
[56] = tested on: OVCAR-5 ovarian
[57] = tested on: NCI-H522 lung
[58] = tested on: EKVX NSCLC
[59] = tested on: ACHN renal

SMILES: CCOC(=O)C(=NN(C)c1ncccc1N)C(=O)OCC
- TGI [1]: > 100 µM
- TGI [2]: 46.2 µM
- TGI [3]: > 100 µM
- TGI [4]: > 100 µM
- TGI [5]: 87.2 µM
- TGI [6]: > 100 µM
- TGI [7]: 65.4 µM
- TGI [8]: > 100 µM
- TGI [9]: 83.3 µM
- TGI [10]: 29 µM
- TGI [11]: > 100 µM
- TGI [12]: > 100 µM
- TGI [13]: > 100 µM
- TGI [14]: 47.6 µM
- TGI [15]: > 100 µM
- TGI [16]: > 100 µM
- TGI [17]: 44.5 µM
- TGI [18]: 69.8 µM
- TGI [19]: 70.3 µM
- TGI [20]: > 100 µM
- TGI [21]: > 100 µM
- TGI [22]: 62.7 µM
- TGI [23]: 64.5 µM
- TGI [24]: > 100 µM
- TGI [25]: 39.7 µM
- TGI [26]: > 100 µM
- TGI [27]: 59.7 µM
- TGI [28]: > 100 µM
- TGI [29]: > 100 µM
- TGI [30]: > 100 µM
- TGI [31]: > 100 µM
- TGI [32]: 53.7 µM
- TGI [33]: > 100 µM
- TGI [34]: > 100 µM
- TGI [35]: > 100 µM
- TGI [36]: 59.1 µM
- TGI [37]: > 100 µM
- TGI [38]: 58.7 µM
- TGI [39]: > 100 µM
- TGI [40]: > 100 µM
- TGI [41]: > 100 µM
- TGI [42]: > 100 µM
- TGI [43]: > 100 µM
- TGI [44]: > 100 µM
- TGI [45]: > 100 µM
- TGI [46]: > 100 µM
- TGI [47]: > 100 µM
- TGI [48]: 38.1 µM
- TGI [49]: > 100 µM
- TGI [50]: > 100 µM
- TGI [51]: 84.2 µM
- TGI [52]: > 100 µM
- TGI [53]: > 100 µM
- TGI [54]: > 100 µM

SMILES: Cc1ccc(S(=O)(=O)NN=C2C(C)CC(C(C)(C)C)CC2C)cc1 (stereo unspecified)
- TGI [1]: 32.9 µM
- TGI [2]: 30.1 µM
- TGI [3]: 31.8 µM
- TGI [4]: 62.2 µM
- TGI [55]: 32.1 µM
- TGI [5]: 32.9 µM
- TGI [6]: 66 µM
- TGI [7]: 34.1 µM
- TGI [9]: 85.9 µM
- TGI [10]: 34.5 µM
- TGI [11]: 40.9 µM
- TGI [12]: 37.8 µM
- TGI [13]: 31.3 µM
- TGI [14]: 34.5 µM
- TGI [15]: 82.1 µM
- TGI [16]: 32.8 µM
- TGI [17]: 34.9 µM
- TGI [18]: > 100 µM
- TGI [19]: 40.6 µM
- TGI [20]: 56.5 µM
- TGI [56]: 31.5 µM
- TGI [21]: > 100 µM
- TGI [22]: 50.7 µM
- TGI [23]: 32.7 µM
- TGI [24]: 35.5 µM
- TGI [25]: 38.6 µM
- TGI [26]: 59.8 µM
- TGI [27]: 32.6 µM
- TGI [28]: 31.6 µM
- TGI [29]: 33.1 µM
- TGI [30]: 65 µM
- TGI [31]: 31.4 µM
- TGI [57]: 50.2 µM
- TGI [32]: 43 µM
- TGI [33]: 31.4 µM
- TGI [34]: 93.2 µM
- TGI [35]: > 100 µM
- TGI [36]: 44.1 µM
- TGI [37]: 31.5 µM
- TGI [38]: 36.6 µM
- TGI [40]: 34.4 µM
- TGI [41]: 31.6 µM
- TGI [42]: 26.9 µM
- TGI [43]: 52.8 µM
- TGI [44]: 34.3 µM
- TGI [45]: 32.7 µM
- TGI [46]: 36.6 µM
- TGI [47]: 51.7 µM
- TGI [48]: 33.2 µM
- TGI [49]: 41.8 µM
- TGI [50]: 37.9 µM
- TGI [51]: 52.7 µM
- TGI [52]: 29.1 µM
- TGI [53]: 40.8 µM
- TGI [54]: 39.1 µM

SMILES: C/C(CC(O)(C(F)(F)Cl)C(F)(F)Cl)=N\Nc1ccccc1
- TGI [1]: 79.7 µM
- TGI [2]: 69.6 µM
- TGI [3]: 48.3 µM
- TGI [4]: > 100 µM
- TGI [5]: > 100 µM
- TGI [6]: > 100 µM
- TGI [7]: > 100 µM
- TGI [9]: > 100 µM
- TGI [10]: > 100 µM
- TGI [11]: > 100 µM
- TGI [12]: 78.9 µM
- TGI [13]: 36.9 µM
- TGI [14]: 89.1 µM
- TGI [15]: > 100 µM
- TGI [16]: > 100 µM
- TGI [17]: > 100 µM
- TGI [18]: > 100 µM
- TGI [19]: > 100 µM
- TGI [20]: 50 µM
- TGI [56]: > 100 µM
- TGI [21]: 66.2 µM
- TGI [58]: 93.8 µM
- TGI [22]: > 100 µM
- TGI [24]: > 100 µM
- TGI [59]: 85.2 µM
- TGI [25]: > 100 µM
- TGI [26]: > 100 µM
- TGI [27]: > 100 µM
- TGI [29]: > 100 µM
- TGI [30]: 95.3 µM
- TGI [31]: > 100 µM
- TGI [57]: > 100 µM
- TGI [32]: 84.2 µM
- TGI [33]: > 100 µM
- TGI [34]: > 100 µM
- TGI [35]: > 100 µM
- TGI [36]: > 100 µM
- TGI [37]: 89.4 µM
- TGI [38]: > 100 µM
- TGI [39]: 47.6 µM
- TGI [40]: > 100 µM
- TGI [41]: 67.2 µM
- TGI [42]: > 100 µM
- TGI [43]: > 100 µM
- TGI [44]: > 100 µM
- TGI [45]: > 100 µM
- TGI [46]: > 100 µM
- TGI [47]: > 100 µM
- TGI [48]: > 100 µM
- TGI [49]: > 100 µM
- TGI [50]: 78.9 µM
- TGI [51]: 62.5 µM
- TGI [52]: > 100 µM
- TGI [53]: > 100 µM
- TGI [54]: > 100 µM

SMILES: O=c1cc(CN2CCCCC2)[nH]c2c1ccc1nc(CN3CCCCC3)cc(=O)n12
- TGI [1]: > 100 µM
- TGI [2]: > 100 µM
- TGI [3]: > 100 µM
- TGI [4]: > 100 µM
- TGI [55]: > 100 µM
- TGI [5]: > 100 µM
- TGI [6]: > 100 µM
- TGI [7]: > 100 µM
- TGI [8]: > 100 µM
- TGI [9]: > 100 µM
- TGI [10]: > 100 µM
- TGI [11]: > 100 µM
- TGI [12]: > 100 µM
- TGI [13]: > 100 µM
- TGI [14]: > 100 µM
- TGI [15]: > 100 µM
- TGI [16]: > 100 µM
- TGI [17]: > 100 µM
- TGI [18]: > 100 µM
- TGI [19]: > 100 µM
- TGI [20]: > 100 µM
- TGI [56]: > 100 µM
- TGI [21]: > 100 µM
- TGI [58]: > 100 µM
- TGI [22]: > 100 µM
- TGI [23]: > 100 µM
- TGI [24]: > 100 µM
- TGI [59]: > 100 µM
- TGI [25]: > 100 µM
- TGI [26]: > 100 µM
- TGI [28]: > 100 µM
- TGI [29]: > 100 µM
- TGI [30]: > 100 µM
- TGI [31]: > 100 µM
- TGI [32]: > 100 µM
- TGI [33]: > 100 µM
- TGI [34]: > 100 µM
- TGI [35]: > 100 µM
- TGI [36]: > 100 µM
- TGI [37]: > 100 µM
- TGI [38]: > 100 µM
- TGI [39]: > 100 µM
- TGI [40]: > 100 µM
- TGI [41]: > 100 µM
- TGI [42]: > 100 µM
- TGI [43]: > 100 µM
- TGI [44]: > 100 µM
- TGI [45]: > 100 µM
- TGI [46]: > 100 µM
- TGI [47]: > 100 µM
- TGI [48]: > 100 µM
- TGI [49]: > 100 µM
- TGI [50]: > 100 µM
- TGI [51]: > 100 µM
- TGI [52]: > 100 µM
- TGI [53]: > 100 µM
- TGI [54]: > 100 µM
